Data set [1] can be described thus: Leucocyte (cellular) drug levels 2 and 24 h after injection. The format is in vivo, human. The following applies: for Leucocyte MMRDX levels, median: n = 6, per l cell volume. The text has this: British Jourmal of Cancer (1998) 77(1), 139-146 ? 1998 Cancer Research Campaign Broad phase 11 and pharmacokinetic study of methoxy-morpholino doxorubicin (FCE 23762-MMRDX) in non-small-cell lung cancer, renal cancer and other solid tumour patients M Bakker', JP Droz2, AR Hanauske3, J Verweij4, AT van Oosterom5, HJM Groen', MA Pacciarini6, L Domenigoni6, F van Weissenbruch', E Pianezzola6 and EGE de Vries' 'University Hospital Groningen, The Netherlands; 2Centre L6on Berard, Lyon, France; 3Med. […] Patients received a maximum of six cycles. […] Limitations of the clinical value of anthracyclines are their toxicity profile, especially irreversible, dose-related cardiotoxicity, and intrinsic or acquired tumour resis- tance. Various mechanisms play a role in tumour cell resistance to anthracyclines, including overexpression of drug efflux pumps such as P-glycoprotein, decreased levels of the target enzyme topoisomerase II, and an increase in cellular detoxifying capacity (Kaye and Merry, 1985; Deffie et al, 1989; De Jong et al, 1990; Ford and Hait, 1990; Meijer et al, 1990; Zaman et al, 1994). The morpholinyl anthracyclines have been developed in the course of research aimed at identifying new anthracyclines with at least partially novel modes of action in addition to activity against resis- tant tumours (Acton et al, 1984). […] Box 30.001, 9700 RB Groningen, The Netherlands (Figure 1).

For data set [2], the system named is solid tumour patients. More on the design: method as in Vasey et al, 1995. The following applies: i.v. bolus every 3 weeks, phase I study; ref Vasey et al, 1995; cited from earlier work.

Consider `COc1cccc2c1C(=O)c1c(O)c3c(c(O)c1C2=O)C[C@@](O)(C(=O)CO)C[C@@H]3O[C@H]1C[C@H](N2CCO[C@H](OC)C2)[C@H](O)[C@H](C)O1` [MMRDX, methoxymorpholino-doxorubicin], for which the “Mean leucocyte concentration relative to corresponding plasma concentration” value was 650 fold in data set [1] (2 h after infusion) and 400 fold in data set [1] (24 h after infusion). For the same compound, the “Leucocyte MMRDX levels, median” value in data set [1] (2 h after infusion) turned out to be 414 µg/L; in data set [1] (24 h after infusion), 174 µg/L. Besides, the Maximum-tolerated dose in data set [2] is given as 1.5 mg m-2.

These data come from PMC2151269, “Broad phase II and pharmacokinetic study of methoxy-morpholino doxorubicin (FCE 23762-MMRDX) in non-small-cell lung cancer, renal cancer and other solid tumour patients” (British Journal of Cancer, 1998).
